From patent publication US11504379B2, “Amide compound, and Pin1 inhibitor, therapeutic agent for inflammatory diseases and therapeutic agent for cancer that use the same” (Hiroshima University, priority 2017, dated 2022)

Assays:
Pin1 = biological target: T1, Pin1 (Homo sapiens, UniProt Q13526); assay: Cell-based Pin1 inhibition assay with AMPK phosphorylation level as index (293T cells); set-up: key: +++: a higher level of AMPK phosphorylation is promoted, as compared with C1; ++: a similar level of AMPK phosphorylation is promoted, as compared with C1; +: a lower level of AMPK phosphorylation is promoted, as compared with C1; −: no or almost no promotion is found in AMPK phosphorylation; conditions: compound at 100 μM for 30 minutes, then 10 mM 2-DG for one hour, pAMPK blot compared with C1
T1 construct: endogenous in cells; host or cells: 293T cells
T1 sequence (Q13526 whole entry): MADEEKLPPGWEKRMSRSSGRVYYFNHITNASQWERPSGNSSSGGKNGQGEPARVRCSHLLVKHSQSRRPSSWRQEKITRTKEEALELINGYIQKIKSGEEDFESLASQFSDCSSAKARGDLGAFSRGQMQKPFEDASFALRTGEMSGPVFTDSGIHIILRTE
Description: To evaluate the inhibitory activity of each compound synthesized in Example 1 against the function of Pin1, a cell-based assay was performed according to the method previously developed by the inventors (Yusuke Nakatsu et al., Journal of Biological Chemistry, 2015, Vol. 290, No. 40, pp. 24255-24266), in which the phosphorylation level of AMPK (AMP-activated protein kinase), a protein whose phosphorylation is inhibited by Pin1, was examined as an index.
Briefly, 293T cells were plated on a collagen-coated 24-well plate. Forty-eight hours later, each compound synthesized in the preceding example (at 100 μM) was added to the plate, and the plate was left to stand in an incubator for 30 minutes. Subsequently, 10 mM 2-DG was added to the plate, and one hour later, each sample was collected with a buffer containing mercaptoethanol and SDS.
SDS-PAGE and blotting were performed, and blocking was then performed with 3% BSA for 1 hour, according to conventional protocols. Subsequently, a pAMPK antibody (Cell Signaling; diluted 1:2000 in Can Get Signal Solution 1, Toyobo) as a primary antibody, and an HRP-linked anti rabbit IgG (GE Healthcare; diluted 1:4000 in Can Get Signal Solution 2, Toyobo) as a secondary antibody were allowed to react at ambient temperature for 1 hour prior to detection.
The inhibitory activity against the function of Pin1 was evaluated by comparing the inhibition levels between each compound and a known Pin1 inhibitor, C1, as indicated below: […]

[1] = test system: non-alcoholic steatohepatitis (NASH) model mice (HFDT); assay: NASH treatment study in HFDT-fed NASH model mice; conditions: for increase in liver weight / blood ALT (GPT) value, index of liver inflammation: HFDT NASH mice, 8 weeks; for increase in liver weight: FIG. 1 (A); for blood ALT (GPT) value, index of liver inflammation: FIG. 1 (B)
Description: Animal experiments were performed using non-alcoholic steatohepatitis (NASH) model mice to test the compounds according to the present invention for the therapeutic effect on NASH.
NASH model mice (hereinafter referred to as “NASH mice”) were produced by feeding a high-fat diet containing trans fatty acids (HFDT) to individual male laboratory mice (C57BL/6J) for 8 weeks. […] In addition, a normal diet was given to individual male laboratory mice (C57BL/6J) for 8 weeks to prepare control mice.

DU145 cells = assay: Cancer treatment study, DU145 tumors implanted in nude mice; format: in vivo, nude mice (BALB/c-slc-nu/nu mice); conditions: intraperitoneal 2.5 mg/kg/day, 5 times a week, 9 weeks, compared to control mice; for tumor size growth, first tumor (tumor volume ratio): FIG. 4 (A); for tumor size growth, second tumor (volume): FIG. 4 (B)
Description: An animal experiment was performed using mice transplanted with cancer cells to test the therapeutic effects of the compounds according to the present invention on cancer.
A first tumor (DU145 cells) with Matrigel plug was implanted in the middle of the upper back of nude mice (BALB/c-slc-nu/nu mice).
Five weeks after the first implantation, a second tumor (DU145 cells) was implanted in the middle of the left and right sides of the back of the nude mice.
No compound was administered to a group of mice to prepare control mice.
The volume of the second tumor was so small and not measurable at the beginning of administration of each compound. Therefore, the result from the second tumor is expressed in volume (mm^3), but not in ratio.

[2] = test system: mice with induction of colitis; conditions: oral administration; cited from earlier work
[3] = test system: NASH mice (methionine-choline-deficient diet); assay: NASH treatment study in MCDD-fed NASH mice, liver sections with Azan staining; format: in vivo, mice (C57BL/6J); conditions: NASH mice given a MCDD, 8 weeks; intraperitoneal 2.5 mg/kg/day three times a week; FIG. 3 (C)
Description: Next, an animal experiment was performed on NASH mice that were produced by feeding a methionine-choline-deficient diet (MCDD).

colon cancer model mice = assay: Colon cancer model mice (AOM/DSS) treatment study; format: in vivo; conditions: oral 1.25 mg/kg/day three times a week from Day 6, dissected on Day 89, versus control
Description: Colon cancer model mice were produced by intraperitoneal administration of azoxymethane (AOM) at a dose of 12 mg/kg to laboratory mice on Day 1, and then starting a course consisting of 5-day oral administration of 3% sodium dextran sulfate (DSS) and 16-day no DSS administration, on Day 6, and repeating the course 4 times, to induce colon inflammation and subsequent cancer development.
On Day 89, the colon cancer model mice were dissected to count the number of developed colon cancer tissues and to measure tumor area occupied by a single colon cancer tissue (total tumor area/tumor tissue number).

[4] = intraperitoneal 2.5 mg/kg/day or oral 5.0 mg/kg/day, three times a week

Row | Pin1 inhibition activity (Pin1) | Compound | other results
1 | + | COC(=O)[C@@H](Cc1ccc2ccccc2c1)NC(=O)Cn1c2ccccc2c2ccccc21 [Compound H-521] | 
2 | ++ | O=C(Nc1ccc(C(=O)c2ccccc2)cc1)N[C@H](Cc1ccc2ccccc2c1)C(=O)O [Compound H-341] | 
3 | ++ | O=C(Cc1ccc2ccccc2c1)N[C@H](Cc1ccc2ccccc2c1)C(=O)O [Compound H-158] | 
4 | − | O=C(N[C@H](Cc1ccc2ccccc2c1)C(=O)OCc1ccccc1)C1c2ccccc2-c2ccccc21 [Compound H-105] | 
5 | + | O=C(O)[C@@H](Cc1ccc2ccccc2c1)NC(=O)N1c2ccccc2C=Cc2ccccc21 [Compound H-164] | 
6 | ++ | O=C(O)[C@@H](Cc1ccc2ccccc2c1)NC(=O)N(c1ccccc1)c1ccccc1 [Compound H-161] | 
7 | +++ | O=C(O)[C@@H](Cc1ccc2ccccc2c1)NC(=O)N1c2ccccc2CCc2ccccc21 [Compound H-178] | 
8 | +++ | O=C(Nc1ccccc1Oc1ccccc1)N[C@H](Cc1ccc2ccccc2c1)C(=O)O [Compound H-334] | 
9 | ++ | O=C(O)[C@@H](Cc1ccc2ccccc2c1)NC(=O)N1c2ccccc2Oc2ccccc21 [Compound H-162] | 
10 | + | COC(=O)c1ccc2cc(C(=O)N[C@H](Cc3ccc4ccccc4c3)C(=O)O)ccc2c1 [Compound H-62] | 
11 |  | COC(=O)[C@@H](Cc1ccc2ccccc2c1)NC(=O)n1c2ccccc2c2ccccc21 [Compound H-144] | increase in liver weight [1, 4]: significantly reduced; blood ALT (GPT) value, index of liver inflammation [1, 4]: decreased; tumor size growth, first tumor (tumor volume ratio) (DU145 cells): suppressed; tumor size growth, second tumor (volume) (DU145 cells): suppressed
12 |  | O=C1C=CC(=O)c2c(O)cccc21 [Juglone, reference compound] | increase in liver weight ([1]; oral 5.0 mg/kg/day three times a week): significantly reduced; colitis development [2]: prevention of colitis development
13 | ++ | O=C(O)[C@@H](Cc1ccc2ccccc2c1)NC(=O)n1c2ccccc2c2ccccc21 [Compound H-163] | increase in liver weight [1, 4]: significantly reduced; blood ALT (GPT) value, index of liver inflammation [1, 4]: decreased; fat accumulation in liver tissue (microscopic observation) ([1]; NASH mice given a HFDT, FIG. 2 (C)): significantly reduced fat accumulation; fat accumulation in liver tissue (microscopic observation) [3]: significantly reduced fat accumulation; hepatic fibrosis (Azan staining) [3]: significantly inhibited; tumor size growth, first tumor (tumor volume ratio) (DU145 cells): suppressed; tumor size growth, second tumor (volume) (DU145 cells): suppressed; number of colon cancer tissues (colon cancer model mice): no significant difference; tumor area occupied by a single colon cancer tissue (colon cancer model mice; FIG. 5): reduction in tumor area
14 | +++ | O=C(N[C@H](Cc1ccc2ccccc2c1)C(=O)O)C1c2ccccc2-c2ccccc21 [Compound H-109] | 
15 | + | O=C(Cn1c2ccccc2c2ccccc21)N[C@H](Cc1ccc2ccccc2c1)C(=O)O [Compound H-536] | 
16 | +++ | O=C(CC1c2ccccc2-c2ccccc21)N[C@H](Cc1ccc2ccccc2c1)C(=O)O [Compound H-103] | 
17 | − | O=C(N[C@H](Cc1ccc2ccccc2c1)C(=O)O)OCc1ccccc1 [Compound H-65, reference compound] | 
18 |  | COc1ccc(-c2cc(C(=O)N[C@H](Cc3ccc4ccccc4c3)C(=O)O)c(C)o2)cc1 [Compound C1, (R)-2-(5-(4-methoxyphenyl)-2-methylfuran-3-carboxamido)-3-(naphthalene-6-yl)propanoic acid] | colitis development [2]: prevention of colitis development

Row | Compound | Pin1 inhibition activity (Pin1) | other results
19 | O=C(O)[C@@H](Cc1ccc2ccccc2c1)NC(=O)C1(O)c2ccccc2-c2ccccc21 [Compound H-101] | ++ | 
